Columns and labels:
Format in all cases: biochemical
μ-opioid receptor [1] = molecular target: T1, μ-opioid receptor (Homo sapiens (Human), UniProt P35372); test: μ-opioid receptor [35S]GTPγS functional assay, HEK-293 or CHO cells (Table 4); conditions: for Emax: relative to DAMGO; for EC50: μ GTP
Protocol: (§1) μ-Opioid Receptor Functional Assay Procedures: [^35S]GTPγS functional assays were conducted using freshly thawed μ-receptor membranes prepared in-house from a cell line expressing recombinant μ opioid receptor in a HEK-293, CHO or U-2 OS cell background, or purchased from a commercial source (Perkin Elmer, Shelton, Conn.; or DiscovRx, Fremont, Calif.). Assay reactions were prepared by sequentially adding the following reagents to binding buffer (100 mM NaCl, 10 mM MgCl2, 20 mM HEPES, pH 7.4) on ice (final concentrations indicated): membrane protein (0.026 mg/mL), saponin ([…]), GDP ([…]) and [^35S]GTPγS (0.20 nM; Perkin Elmer, Shelton, Conn.). The prepared membrane solution (190 μl/well) was transferred to 96-shallow well polypropylene plates containing 10 μl of 20× concentrated stock solutions of the agonist [D-Ala^2, N-methyl-Phe^4 Gly-ol^5]-enkephalin (DAMGO) prepared in dimethyl sulfoxide (DMSO). Plates were incubated for 30 min at about 25° C. with shaking Reactions were terminated by rapid filtration onto 96-well Unifilter GF/B filter plates (Perkin Elmer, Shelton, Conn.) using a 96-well tissue harvester (Perkin Elmer, Shelton, Conn.) followed by three filtration washes with 200 μl of ice-cold wash buffer (10 mM NaH2PO4, 10 mM Na2HPO4, pH 7.4). Filter plates were subsequently dried at 50° C. for 2-3 hours. BetaScint scintillation cocktail (Perkin Elmer, Shelton, Conn.) was added (50 μl/well) and plates were counted using a Packard Top-Count for 1 min/well. Data were analyzed using the sigmoidal dose-response curve fitting functions in GraphPad PRISM v. 3.0, or an in-house function for non-linear, sigmoidal dose-response curve-fitting. [^35S]GTPγS functional assays can also be conducted using freshly thawed μ-receptor membranes prepared from a cell line expressing recombinant μ opioid receptor in a CHO-K1 cell background.
(§2) μ GTP Emax (%) is the maximal effect elicited by a compound relative to the effect elicited by DAMGO, a standard μ agonist.
In TABLE 4, activity response of certain Compounds of the Invention to the μ- and κ-opioid receptors was determined as described above for functional assays using HEK-293 or CHO cells.

μ-opioid receptor [2] = molecular target: T1, μ-opioid receptor; test: μ-opioid receptor [35S]GTPγS functional assay, U-2 OS cells (Table 5); conditions: for Emax: relative to DAMGO; for EC50: μ GTP
Protocol: as §1, §2

κ-opioid receptor = κ-opioid receptor (Homo sapiens (Human), UniProt P41145); test: κ-opioid receptor [35S]GTPγS functional assay, U-2 OS cells (Table 5); conditions: for Emax: relative to U69,593; for EC50: κ GTP
Protocol: κ-Opioid Receptor Functional Assay Procedures: Functional [^35S]GTPγS binding assays were conducted as follows. κ opioid receptor membrane solution was prepared by sequentially adding final concentrations of 0.026 μg/μl κ membrane protein (in-house), 10 μg/mL saponin, 3 μM GDP and 0.20 nM [^35S]GTPγS to binding buffer (100 mM NaCl, 10 mM MgCl2, 20 mM HEPES, pH 7.4) on ice. The prepared membrane solution (190 μl/well) was transferred to 96-shallow well polypropylene plates containing 10 μl of 20× concentrated stock solutions of agonist prepared in DMSO. Plates were incubated for 30 min at a temperature of about 25° C. with shaking. Reactions were terminated by rapid filtration onto 96-well Unifilter GF/B filter plates (Perkin Elmer, Shelton, Conn.) using a 96-well tissue harvester (Packard) and followed by three filtration washes with 200 μl ice-cold binding buffer (10 mM NaH2PO4, 10 mM Na2HPO4, pH 7.4). Filter plates were subsequently dried at 50° C. for 2-3 hours. Fifty μl/well scintillation cocktail (Perkin Elmer, Shelton, Conn.) was added and plates were counted in a Packard Top-Count for 1 min/well.
κ GTP Emax (%) is the maximal effect elicited by a compound relative to the effect elicited by U69,593.
The following TABLE 5 provides results on the activity response of certain Compounds of the Invention at the μ- and κ-opioid receptors determined as described above using U-2 OS cells.

SMILES | Emax (μ-opioid receptor [1]) | EC50 (μ-opioid receptor [1]) | Emax (μ-opioid receptor [2]) | EC50 (μ-opioid receptor [2]) | Emax (κ-opioid receptor) | EC50 (κ-opioid receptor) | EC50 (μ-opioid receptor [1]; bound given in μM)
COc1ccc2c(c1)[C@]13CCN(CC4CC4)[C@H](C2)[C@]1(O)C[C@H](C#N)C3 [Compound 25, (2R,3aS,4R,9bS)-12-(cyclopropylmethyl)-3a-hydroxy-8-methoxy-1,2,3,3a,4,5-hexahydro-4,9b-(epiminoethano)-cyclopenta[a]naphthalene-2-carbonitrile] | 12 ± 2.08% | 0.616 ± 0.0409 µM | 54.3 ± 4.1% | 228 ± 25.4 nM | 107 ± 4.16% | 234 ± 28.5 nM | –
O=C(NCc1cccnc1)[C@H]1C[C@]23CCN(CC4CC4)[C@H](Cc4ccc(O)cc42)[C@]3(O)C1 [Compound 92, (2S,3aS,4R,9bS)-12-(cyclopropylmethyl)-3a,8-dihydroxy-N-(pyridin-3-ylmethyl)-1,2,3,3a,4,5-hexahydro-4,9b-(epimino-ethano)cyclopenta[a]naphthalene-2-carboxamide] | -1% | – | – | – | – | – | > 20 µM
O=C(NCc1ccc(O)cc1)[C@H]1C[C@]23CCN(CC4CC4)[C@H](Cc4ccc(O)cc42)[C@]3(O)C1 [Compound 40, (2S,3aS,4R,9bS)-12-(cyclopropylmethyl)-3a,8-dihydroxy-N-(4-hydroxybenzyl)-1,2,3,3a,4,5-hexahydro-4,9b-(epiminoethano)cyclopenta[a]naphthalene-2-carboxamide] | 1% | – | 29.3 ± 1.33% | 1.45 ± 0.068 nM | 97.7 ± 1.86% | 0.73 ± 0.07 nM | > 20 µM
O=C(NCc1ccc(Cl)cc1Cl)[C@H]1C[C@]23CCN(CC4CC4)[C@H](Cc4ccc(O)cc42)[C@]3(O)C1 [Compound 45, (2S,3aS,4R,9bS)-12-(cyclopropylmethyl)-N-(2,4-dichlorobenzyl)-3a,8-dihydroxy-1,2,3,3a,4,5-hexahydro-4,9b-(epimino-ethano)cyclopenta[a]naphthalene-2-carboxamide] | 43.3 ± 4.84% | 0.00038 ± 4.4e-05 µM | 87 ± 0.58% | 0.14 ± 0.018 nM | 100 ± 4.62% | 0.018 nM | –
O=C([C@@H]1C[C@]23CCN(CC4CC4)[C@H](Cc4ccc(O)cc42)[C@]3(O)C1)N1CCC(N2CCCC2)CC1 [Compound 88, ((2R,3aS,4R,9bS)-12-(cyclopropylmethyl)-3a,8-dihydroxy-1,2,3,3a,4,5-hexahydro-4,9b-(epiminoethano)cyclopenta-[a]naphthalen-2-yl)(4-(pyrrolidin-1-yl)piperidin-1-yl)methanone] | 0% | – | – | – | – | – | > 20 µM
O=C(NCc1cccnc1)[C@@H]1C[C@]23CCN(CC4CC4)[C@H](Cc4ccc(O)cc42)[C@]3(O)C1 [Compound 89, (2R,3aS,4R,9bS)-12-(cyclopropylmethyl)-3a,8-dihydroxy-N-(pyridin-3-ylmethyl)-1,2,3,3a,4,5-hexahydro-4,9b-(epimino-ethano)cyclopenta[a]naphthalene-2-carboxamide] | 4.5% | – | – | – | – | – | > 20 µM
O=C(N[C@@H]1CC23CCN(CC4CC4)[C@H](Cc4ccc(O)cc42)[C@]3(O)C1)c1ccccc1 (stereo in doubt) [Compound 82, N-((2R,3aS,4R,9bS)-12-(cyclopropyl-methyl)-3a,8-dihydroxy-1,2,3,3a,4,5-hexahydro-4,9b-(epiminoethano)cyclo-penta[a]naphthalen-2-yl)benzamide] | 1% | – | – | – | – | – | > 20 µM
CN1CC[C@]23C[C@H](C(N)=O)C[C@@]2(O)[C@H]1Cc1ccc(O)cc13 [Compound 78, (2S,3aS,4R,9bS)-3a,8-dihydroxy-12-methyl-1,2,3,3a,4,5-hexahydro-4,9b-(epiminoethano)cyclopenta-[a]naphthalene-2-carboxamide] | 27.4 ± 1.03% | 0.308 ± 0.093 µM | 94.7 ± 2.4% | 89.3 ± 14.6 nM | 89.7 ± 4.84% | 973 ± 136 nM | –
O=C(NCCN1CCOCC1)[C@@H]1C[C@]23CCN(CC4CC4)[C@H](Cc4ccc(O)cc42)[C@]3(O)C1 [Compound 84, (2R,3aS,4R,9bS)-12-(cyclopropyl-methyl)-3a,8-dihydroxy-N-(2-morpholinoethyl)-1,2,3,3a,4,5-hexahydro-4,9b-(epimino-ethano)cyclopenta[a]naphthalene-2-carboxamide] | 19.7 ± 1.67% | 0.0717 ± 0.0237 µM | – | – | – | – | –
O=C(NCCCN1CCOCC1)[C@H]1C[C@]23CCN(CC4CC4)[C@H](Cc4ccc(O)cc42)[C@]3(O)C1 [Compound 91, (2S,3aS,4R,9bS)-12-(cyclopropylmethyl)-3a,8-dihydroxy-N-(3-morpholinopropyl)-1,2,3,3a,4,5-hexahydro-4,9b-(epimino-ethano)cyclopenta[a]naphthalene-2-carboxamide] | -1% | – | – | – | – | – | > 20 µM
Oc1ccc2c(c1)C13CCN(CC4CC4)[C@H](C2)[C@]1(O)C[C@H](N(Cc1ccccc1)Cc1ccccc1)C3 (stereo in doubt) [Compound 81, (2R,3aS,4R,9bS)-12-(cyclopropyl-methyl)-2-(dibenzylamino)-2,3,4,5-tetrahydro-4,9b-(epiminoethano)-cyclopenta-[a]naphthalene-3a,8(1H)-diol] | 19 ± 1.53% | – | – | – | – | – | > 20 µM
O=C([C@@H]1C[C@]23CCN(CC4CC4)[C@H](Cc4ccc(O)cc42)[C@]3(O)C1)N1CCN(c2ccccc2)CC1 [Compound 86, ((2R,3aS,4R,9bS)-12-(cyclopropylmethyl)-3a,8-dihydroxy-1,2,3,3a,4,5-hexahydro-4,9b-(epiminoethano)cyclopenta-[a]naphthalen-2-yl)(4-phenylpiperazin-1-yl)methanone] | 12.8 ± 0.63% | 0.0288 ± 0.0105 µM | – | – | – | – | –
O=C([C@H]1C[C@]23CCN(CC4CC4)[C@H](Cc4ccc(O)cc42)[C@]3(O)C1)N1CCS(=O)(=O)CC1 [Compound 94, ((2S,3aS,4R,9bS)-12-(cyclopropylmethyl)-3a,8-dihydroxy-1,2,3,3a,4,5-hexahydro-4,9b-(epiminoethano)cyclopenta-[a]naphthalen-2-yl)(1,1-dioxido-thiomorpholino)methanone] | 10.6 ± 3.41% | – | – | – | – | – | > 20 µM
Oc1ccc2c(c1)C13CCN(CC4CC4)[C@H](C2)[C@]1(O)C[C@H](NCc1ccccc1)C3 (stereo in doubt) [Compound 80, (2R,3aS,4R,9bS)-2-(benzylamino)-12-(cyclopropylmethyl)-2,3,4,5-tetrahydro-4,9b-(epiminoethano)-cyclopenta-[a]naphthalene-3a,8(1H)-diol] | 1% | – | – | – | – | – | > 20 µM
O=C(NCc1ccncc1)[C@@H]1C[C@]23CCN(CC4CC4)[C@H](Cc4ccc(O)cc42)[C@]3(O)C1 [Compound 90, (2R,3aS,4R,9bS)-12-(cyclopropylmethyl)-3a,8-dihydroxy-N-(pyridin-4-ylmethyl)-1,2,3,3a,4,5-hexahydro-4,9b-(epimino-ethano)cyclopenta[a]naphthalene-2-carboxamide] | 8.14 ± 1.3% | – | – | – | – | – | > 20 µM
O=C(Nc1ccccc1)N[C@@H]1CC23CCN(CC4CC4)[C@H](Cc4ccc(O)cc42)[C@]3(O)C1 (stereo in doubt) [Compound 83, 1-((2R,3aS,4R,9bS)-12-(cyclopropyl-methyl)-3a,8-dihydroxy-1,2,3,3a,4,5-hexahydro-4,9b-(epiminoethano)cyclo-penta[a]naphthalen-2-yl)-3-phenylurea] | 0% | – | – | – | – | – | > 20 µM
O=C([C@@H]1C[C@]23CCN(CC4CC4)[C@H](Cc4ccc(O)cc42)[C@]3(O)C1)N1CCSCC1 [Compound 87, ((2R,3aS,4R,9bS)-12-(cyclopropylmethyl)-3a,8-dihydroxy-1,2,3,3a,4,5-hexahydro-4,9b-(epiminoethano)cyclopenta-[a]naphthalen-2-yl)(thiomorpholino)-methanone] | 1% | – | – | – | – | – | > 20 µM

Source: US9656962B2, “Ring-contracted morphinans and the use thereof” (Purdue Pharma L.P., priority 2013, dated 2017)
